Source: US9095579B2 (priority 2012, dated 2015)
Entries after “also recorded” stand apart in the source; their conditions may differ.

System: A/PR/8/34; H1N1 viruses (PR8-WT, PR8-A122V)
Set-up: species or system C57BL/6 mice
Conditions: mouse, in vivo

Compound | protection from the effects of influenza infection | columnar organization of the airway epithelium (ip) | epithelial damage in lung airways caused by PR8-WT and PR8-A122V (ip)
CC1=C2C[C@H]3[C@@H](CC=C4C[C@@H](O)CC[C@@]43C)[C@@H]2CC[C@]12O[C@@H]1C[C@H](C)CN[C@H]1[C@H]2C [cyclopamine] | partially protected | restored a degree of columnar organization | reduced epithelial damage; also recorded: partially rescued; also recorded: reduces viral damage in the lung
C[C@H]1CC[C@]2(NC1)O[C@H]1C[C@H]3[C@@H]4CC[C@H]5C[C@@H](O)CC[C@]5(C)[C@H]4CC[C@]3(C)[C@H]1[C@@H]2C [tomatidine] | – | – | no rescue of airway damage; also recorded: no obvious effect
